Experimental findings from ChEMBL document CHEMBL4190224, “Xanthohumol Blocks Proliferation and Migration of Vascular Smooth Muscle Cells in Vitro and Reduces Neointima Formation in Vivo” (J Nat Prod, 2017) are described below.

pIC50: −log10 of the molar value. Activity calls are given as the source filed them. The rule behind the calls is not given here.

In series [1] the test system is VSMC. The series is described as follows: Cytotoxicity against rat VSMC at 1 to 15 uM after 48 hrs by LDH release assay. In kind it is cell-based. A general note: Release of lactate dehydrogenase indicates damage to the cell membrane.
The subject of series [2] is VSMC. Put plainly: Inhibition of PDGF-BB-induced rat VSMC proliferation preincubated for 30 mins followed by PDGF-BB addition measured after 48 hrs by resazurin assay. The class given is functional, cell-based. On the technique in general: Alamar Blue is a resazurin reagent that responds to reducing activity.
The next series deals with Mus musculus. The series is described as follows: Inhibition of cuff-induced restenosis in C57BL/6 mouse femoral artery cuff model assessed as reduction in neointima formation dosed via local application using compound dissolved on F-127 gel measured after 2 weeks by hematoxylin and eosin staining-based microscopic analysis. The class given is functional, organism-based.

In series [3] the test system is VSMC. The series is described as follows: Antimigratory activity against PDGF-BB-stimulated rat VSMC at 15 uM preincubated for 30 mins followed by PDGF-BB addition measured after 20 hrs by scratch wound-healing assay. The class given is functional, cell-based.

In the case of `COc1cc(O)c(CC=C(C)C)c(O)c1C(=O)/C=C/c1ccc(O)cc1` [XANTHOHUMOL], the Activity entry with VSMC [1] is recorded as “Non-Toxic”. In the series on VSMC [2], the pIC50 (in general, −log10 of the IC50, conventionally taken in molar units) is 5.46 and the inhibition entry was “Dose-dependent effect”. Also, the outcome in the series with Mus musculus was Active. Further, the result with VSMC [3] was Active.
